Reference: US20260048003A1, “STABLE CYCLODEXTRIN FREE CARFILZOMIB FORMULATION” (AMGEN INC., priority 2020, published 2026)

Assays:
Assay type in all cases: physicochemical
[1] = Lyophilization and bulking agent screening
Method: 1 mL CFZ-API liquid formulation fill as prepared above in 3 mL Schott 1A glass vial was loaded into a VirTis Genesis 12 EL lyophilizer (TS Systems LyoStar™-3, SP Scientific, Warminster, PA). The lyophilization cycle used for screening bulking agents consisted of holding shelf temperature at 4° C. for 30 minutes then cooling the shelf to −45° C. at 0.2° C./min. The annealing step was then performed at from −45° C. to −12° C. at 0.3° C./min. The primary drying and secondary drying shelf temperatures were −25° C. and 25° C., respectively. The heating rate applied to the primary and secondary drying were 0.2° C./min and 0.1° C./min, respectively.
Table 5 describes the initial lyophilization study results of formulations containing bulking agents such as PVP 12,000 MW, mannitol, or glycine pre and post lyophilization. PVP was selected as a co-solubilizing agent candidate because of high solubility of CFZ-API in PVP pre and post lyophilization as discussed above. […]
Results from the lyophilization and bulking agent screening produced mostly poor lyophilized cakes, however two selected bulking agent provided cakes that looked better in overall drug product presentation. […] The CFZ-API recovery of 1.8 mg/ml was lower than the expected of 2 mg/ml possibly due to the other components of the powder absorbing the water, making it more dilute than theoretically measured.

[2] = Aqueous phase solvents screening to dissolve CFZ-API to about 2 mg/ml (visual, RP-HPLC after filtration); details: aqueous solution around pH 3.0 to 3.5 (methane sulfonic acid) with 10,000 MW PVP
From the text: In Step 1 of the flow scheme preparation, non-aqueous solvents consisting of water miscible organic solvents and a co-solvent system were first added to dissolve the CFZ-API solid due its very low water solubility. […] The solution was then filtered by using 0.22 μm PES syringe filter equipped on a NORMJECT® (silicone free) syringe. The resulting filtrate was then checked for CFZ-API solubility recovery and stability on reverse phase high performance liquid chromatography (RP-HPLC). RP-HPLC was used to determine peak degradation as well as CFZ-API recovery through the use of a 3 to 5 point reference standard curve. Peak integration of standards was taken against standard buffer, 50% acetonitrile in water; while peak integration of formulation samples was taken against buffer of the formulation.

[3] = Organic water miscible solvent screening to dissolve CFZ-API at high concentration; details: in NMP and DMSO
Method: Non-aqueous phase: (a) 200 mg/ml to 250 mg/ml of CFZ-API target concentration for the water miscible solvent screening; and (b) 20 to 50 mg/ml of CFZ-API target concentration for the co-solvent screening; and Aqueous phase: about 2 mg/ml target CFZ-API final concentration.
Since CFZ-API is extremely insoluble in water, various organic water miscible solvents were first screened to dissolve CFZ-API drug substance powder.

[4] = Visual observation of the cyclodextrin-free CFZ-API sample formulation (FIG. 1); details: CFZ-API 2 mg/ml in water in the presence of phosphate buffer solution (PBS)
From the text: FIG. 1 illustrates a visual comparison of carfilzomib active ingredient in (a) water, (b) cyclodextrin (CAPTISOL®) and cyclodextrin-free formulation of the present invention
Carfilzomib (CFZ) is a proteasomal inhibitor and active ingredient of KYPROLIS®, a lyophilized drug product which is for the treatment of multiple myeloma. The current commercial formulation of KYPROLIS contains CAPTISOL®, which is a cyclodextrin used to help solubility the CFZ-API. The present invention provides a stable, cyclodextrin-free formulations for CFZ-API in an aqueous solution which is suitable for injection. FIG. 1 illustrates (a) insoluble CFZ-API in water in the presence of phosphate buffer solution (PBS) (left vial); (b) current commercial KYPROLIS formulation containing CAPTISOL (middle vial); and (c) the cyclodextrin free formulation of the invention (right vial). Each sample contains CFZ-API concentration of 2 mg/ml.

CC(C)C[C@H](NC(=O)[C@H](CCc1ccccc1)NC(=O)CN1CCOCC1)C(=O)N[C@@H](Cc1ccccc1)C(=O)N[C@@H](CC(C)C)C(=O)[C@@]1(C)CO1 [CFZ-API, Carfilzomib]
CFZ-API solubility trend with PVP concentration ([1]; PVP 10% to 40%): higher CFZ-API solubility | CFZ-API solubility trend with PVP molecular weight ([1]; PVP 10,000, 12,000 and 17,000 MW): more soluble in lower MW PVP | CFZ-API solubilized [2]: ≥ 90% | CFZ-API solubility [3]: highly soluble | Visual observation (FIG. 1) [4]: insoluble
